Reference: patent US9399028B2, “Treatment of drug resistant cancer” (ROCKEFELLER UNIVERSITY (THE), priority 2012, dated 2016)
Where a name gives a salt, the structure may show the parent alone.

Columns and labels:
[1] = tested on: ApoE; assay: ApoE expression in vivo (western blot, qRT-PCR) in mouse tissues, white blood cells and tumors; conditions: for ApoE protein expression in systemic adipose, lung, and brain tissues: chow 20 mg/kg for 10 days, western blot; for ApoE transcript levels in circulating white blood cells: diet 20 mg/kg for 10 days
Description: FIG. 29A-K. Therapeutic Delivery of LXR Agonists Upregulates Melanoma-Derived and Systemic ApoE Expression. (FIG. 29A-FIG. 29B) ApoE expression levels, quantified by qRT-PCR, in subcutaneous tumors formed by B16F10 mouse melanoma cells injected into C57BL/6 mice. After 5-mm3 tumor formation, mice were fed a control diet or diet containing GW3965 (20 mg/kg) (FIG. 29A) or T0901317 (20 mg/kg) (FIG. 29B) for 7 days. n=3-4. (FIG. 29C-FIG. 29E) ApoE transcript expression in primary tumors (FIG. 29C), lung metastases (FIG. 29D), and brain metastases (FIG. 29E) formed by MeWo human melanoma cells grafted onto NOD Scid mice that were administered control chow or chow supplemented with GW3965 (20 mg/kg). ApoE levels were assessed on day 35 (FIG. 29C), day 153 (FIG. 29D), and day 34 (FIG. 29E) post-injection of the cancer cells. n=3-5. (FIG. 29F) Relative expression levels of LXRα, LXRβ, and ApoE were determined by qRT-PCR in B16F10 mouse melanoma cells expressing a control hairpin or an shRNA targeting mouse LXRα (sh_mLXRα), mouse LXRβ (sh_mLXRβ), or mouse ApoE (sh_mApoE). (FIG. 29G-FIG. 29H) ApoE (FIG. 29G) and ABCA1 (FIG. 29H) mRNA levels, measured by qRT-PCR, in B16F10 cells expressing a control shRNA or shRNAs targeting mouse LXRβ or mouse ApoE. The cells were treated with DMSO or GW3965 at 5 μM for 48 hours. n=3. (FIG. 29I) ABCA1 mRNA levels, measured by qRT-PCR, in systemic white blood cells extracted from LXRα−/− or LXRβ−/− mice fed a control diet or a GW3965-supplemented diet (20 mg/kg) for 10 days. n=3-4. (FIG. 29J) Relative expression of ApoE mRNA, expressed as the frequency of SAGE tags, in mouse skin and lung tissues was determined using the public mSAGE Expression Matrix database available through the NCI-funded Cancer Genome Anatomy Project (CGAP). (FIG. 29K) Relative expression of ApoE mRNA, determined by qRT-PCR, in MeWo melanoma cells dissociated from lung metastatic nodules (LM2) or primary tumors relative to control unselected MeWo parental cells. n=3.
FIG. 30A-I. LXRβ Agonism Suppresses Melanoma Tumor Growth and Metastasis by Inducing Melanoma-Derived and Systemic ApoE Expression. […] (FIG. 30B) Quantification of ApoE protein expression based on western blots shown in (FIG. 30A). […] (FIG. 30C) Expression levels of ApoE, determined by qRT-PCR, in systemic white blood cells from mice fed a control diet or a diet supplemented with GW3965 or T0901317 at 20 mg/kg for 10 days. n=3-6. […] Once the tumors reached 5-10 mm3 in volume, mice were fed a control diet or a diet supplemented with GW3965 (20 mg/kg) for 7 days, after which final tumor volume was measured. […] (FIG. 30E) ApoE transcript levels, quantified by qRT-PCR, in systemic white blood cells extracted from LXRα−/− or LXRβ−/− mice fed a control diet or a GW3965-supplemented diet (20 mg/kg) for 10 days. n=3-5. […]

[2] = tested on: human breast, pancreatic, renal, lung cancer and uveal melanoma cell lines; assay: Trans-well matrigel invasion assay, other cancer types; format: cell-based
Description: The ability of cancer cells to invade through matrigel in vitro was tested by using a trans-well matrigel invasion chamber system (354480, BD Biosciences). Various cancer cell lines were serum-starved overnight in media containing 0.2% FBS. The following day, invasion chambers were pre-equilibrated prior to the assay by adding 0.5 mL of starvation media to the top and bottom wells. Meanwhile, cancer cells were trypsinized and viable cells were counted using the trypan blue dead cell exclusion dye. Cancer cells were then resuspended at a concentration of 1×10^5 cells/1 mL starvation media, and 0.5 mL of cell suspension, containing 5×10^4 cells, was seeded into each trans-well. […] The basal side of each insert was imaged using an inverted fluorescence microscope (Zeiss Axiovert 40 CFL) at 5× magnification, and the number of DAPI-positive cells was quantified using ImageJ.
The cells were serum starved for 16 hours in 0.2% FBS media in the presence of DMSO or GW3965. […] Meanwhile, cancer cells were trypsinized and viable cells were counted using trypan blue. […] The basal side of each insert was imaged using an inverted fluorescence microscope (Zeiss Axiovert 40 CFL) at 5× magnification, and the number of DAPI-positive cells was quantified using ImageJ.

Row | Molecule | ApoE protein expression in systemic adipose, lung, and brain tissues [1] | ApoE transcript levels in circulating white blood cells [1] | tumor cell invasion in renal, pancreatic and lung cancer cells ([2]; RCC, PANC1, H460 cells, 1 μM for 72 hours) | tumor cell invasion across breast, renal cell and pancreatic cancer ([2]; recombinant ApoE3 100 μg/mL)
1 | O=C(O)Cc1cccc(OCCCN(Cc2cccc(C(F)(F)F)c2Cl)CC(c2ccccc2)c2ccccc2)c1 [GW3965 2, 3-[3-[N-(2-Chloro-3-trifluoromethylbenzyl)-(2,2-diphenylethyl)amino]propyloxy]phenylacetic acid hydrochloride] | significantly elevated | upregulated | inhibition | –
2 | O=S(=O)(c1ccccc1)N(CC(F)(F)F)c1ccc(C(O)(C(F)(F)F)C(F)(F)F)cc1 [T0901317 1] | significantly elevated | upregulated | – | –
3 | recombinant human ApoE3: recombinant human ApoE3 (4696, BioVision) | – | – | – | inhibited
